Data published in patent US6632921B1, “Seryl-lysyl-based peptide and peptidomimetic inhibitors of N-myristoyl transferase as anti-infective agents” (G. D Searle & Co, priority 1995, dated 2003).

Key:
[1] = system: C. albicans Arf N-myristoylation; assay: Gel shift assay for degree of N-myristoylation of Arf in C. albicans cultures; assay type: cell-based, Candida albicans; details: 200 μM, 24° C., strain MONCA105; for reduction in Arf N-myristoylation: 2 h
Excerpt: N-myristoylation of C. albicans ADP ribosylation factor (Arf), produces a change in its electrophoretic mobility during SDS-polyacrylamide gel electrophoresis. The acylated species migrates more rapidly than the nonmyristoylated species [J. K. Lodge et al, J. Biol. Chem., 269, 2996-3009 (1994)].
Based on these findings, acylation of C. albicans Arf, measured using this protein gel shift assay, was used to define the effects of peptide analog inhibitors of C. albicans NMT on the efficiency of protein N-myristoylation in cultures of this fungal pathogen.
The assay was performed as follows. A single colony of Candida albicans strain MONCA105 NMT, [R. A Weinberg et al, Mol. Micro., in press, (1995)] was innoculated into YPD medium (YPD=1% yeast extract, 2% peptone, 2% dextrose). Cultures were shaken at 24° C. for 12-16 h. Cells were recovered by centrifugation, washed 3 times with sterile PBS, pH 7.4 and resuspended in YPD at an OD600 of 1.0-1.5. Fifty microliters of a 20 mM stock solution of peptide analog (prepared in sterile deionized H2O) were added to a sterile polypropylene tube containing 4.5 mL of fresh YPD medium. Five hundred microliters of the C. albicans culture was then added to the tubes. Controls consisted of no added peptide analog (i.e. water alone).The tubes were incubated at 24° C. with vigorous shaking for 2 hr or 4 hr. For each experiment, duplicate tubes were assayed for each condition and at each time point. Cells were recovered by centrifugation, resuspended in 200 μL of Lysis Buffer (0.125M Tris-HCl, pH 6.8/4% SDS), and transferred to microfuge tubes containing 200 μL of glass beads (bead diameter=425-600 μm, Sigma).The slurry was vortexed 3 times for 1 min each. Between each cycle of vortexing, the tubes were placed on ice for 1 min. The mixture was then placed in a boiling water bath for 10 min, vortexed once again for 1 min and subsequently spun at 10,000×g for 2 min. The cleared supernatant fraction was removed, spun again at 10,000×g for 5 min and the total protein concentration determined. […]

C.trop. = assay: Antifungal susceptibility testing, pH 5.4 assay, different strains of Candida; assay type: cell-based, C.tropicalis; details: Candida tropicalis, 24 hr
C.lusi. = assay: as above; assay type: cell-based, C.lusitaniae; details: Clavispora lusitaniae, 24 hr
C.glab. = assay: as above; assay type: cell-based, C.glabrata; details: Nakaseomyces glabratus, 24 hr
C.para. = assay: as above; assay type: cell-based, C.parasilosis; details: 24 hr

Row | Structure (SMILES) | reduction in Arf N-myristoylation [1] | reduction of Arf acylation ([1]; 4 h) | EC50 (C.trop.) [µM] | EC50 (C.lusi.) [µM] | EC50 (C.glab.) [µM] | EC50 (C.para.) [µM]
1 | Cc1nccn1CCCCc1ccc(CC(=O)N[C@H](CO)C(=O)N[C@H](CCCCN)C(=O)N[C@H](CC2CCCCC2)C(=O)O)cc1 [Comparator Compound A, D-Alanine, 3-cyclohexyl-N-[N^2-[N-[[4-[4-(2-methyl-1H-imidazol-1-yl)butyl]phenyl]acetyl]-D-seryl]-D-lysyl]-, bis-trifluoroacetate] | no detectable reduction | no detectable reduction | > 250 | > 250 | > 250 | > 250
2 | Cc1nccn1CCCCc1ccc(CC(=O)N[C@@H](CO)C(=O)N[C@@H](CCCCN)C(=O)N[C@@H](CC2CCCCC2)C(=O)O)cc1 [Example 2, L-Alanine, 3-cyclohexyl-N-[N^2-[N-[[4-[4-(2-Methyl-1H-imidazol-1-yl)butyl]phenyl]acetyl]-L-seryl]-L-lysyl]-, bis-trifluoroacetate] | ~10% | – | > 250 | > 250 | > 250 | 40
